According to patent US20060058504A1, “Peptides capable of inducing attraction to the axonal growth and their use for treating neurodegenerative diseases” (Centre National de la Recherche Scientific (CNRS), priority 2002, published 2006):
Entries after “also recorded” stand apart in the source; their conditions may differ. Read-outs that look alike come from different tables or passages of the source.

Key:
L1/NP-1 complex = assay: Co-immunoprecipitation of the L1/NP-1 complex in presence of peptide; assay type: binding; details: Sema3A combined to the peptide
Chain of L1/NP-1 complex (O14786 22-923): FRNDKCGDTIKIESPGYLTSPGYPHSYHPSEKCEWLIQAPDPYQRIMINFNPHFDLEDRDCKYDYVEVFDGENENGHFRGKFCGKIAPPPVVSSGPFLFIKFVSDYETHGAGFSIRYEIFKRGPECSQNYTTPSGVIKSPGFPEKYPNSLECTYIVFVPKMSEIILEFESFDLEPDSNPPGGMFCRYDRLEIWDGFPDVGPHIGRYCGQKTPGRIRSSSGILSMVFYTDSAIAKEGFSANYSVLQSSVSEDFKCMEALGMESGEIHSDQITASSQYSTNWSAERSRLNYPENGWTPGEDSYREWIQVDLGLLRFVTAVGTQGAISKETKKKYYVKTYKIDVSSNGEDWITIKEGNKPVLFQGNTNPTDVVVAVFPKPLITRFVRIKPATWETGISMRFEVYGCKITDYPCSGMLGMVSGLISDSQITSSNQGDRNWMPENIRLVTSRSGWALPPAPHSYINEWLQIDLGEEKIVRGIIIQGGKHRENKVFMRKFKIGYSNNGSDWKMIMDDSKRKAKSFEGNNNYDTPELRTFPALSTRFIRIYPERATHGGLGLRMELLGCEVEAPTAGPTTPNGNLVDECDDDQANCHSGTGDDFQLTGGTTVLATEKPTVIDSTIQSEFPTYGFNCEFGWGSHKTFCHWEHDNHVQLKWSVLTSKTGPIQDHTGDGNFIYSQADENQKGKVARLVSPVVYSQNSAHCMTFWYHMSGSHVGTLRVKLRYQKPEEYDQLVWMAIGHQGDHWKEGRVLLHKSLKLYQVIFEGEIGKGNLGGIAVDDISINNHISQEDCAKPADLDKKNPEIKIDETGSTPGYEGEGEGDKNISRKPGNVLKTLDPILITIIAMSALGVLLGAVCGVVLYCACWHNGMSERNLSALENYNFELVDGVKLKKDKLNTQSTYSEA
Chain of L1/NP-1 complex (P32004 20-1257 partner): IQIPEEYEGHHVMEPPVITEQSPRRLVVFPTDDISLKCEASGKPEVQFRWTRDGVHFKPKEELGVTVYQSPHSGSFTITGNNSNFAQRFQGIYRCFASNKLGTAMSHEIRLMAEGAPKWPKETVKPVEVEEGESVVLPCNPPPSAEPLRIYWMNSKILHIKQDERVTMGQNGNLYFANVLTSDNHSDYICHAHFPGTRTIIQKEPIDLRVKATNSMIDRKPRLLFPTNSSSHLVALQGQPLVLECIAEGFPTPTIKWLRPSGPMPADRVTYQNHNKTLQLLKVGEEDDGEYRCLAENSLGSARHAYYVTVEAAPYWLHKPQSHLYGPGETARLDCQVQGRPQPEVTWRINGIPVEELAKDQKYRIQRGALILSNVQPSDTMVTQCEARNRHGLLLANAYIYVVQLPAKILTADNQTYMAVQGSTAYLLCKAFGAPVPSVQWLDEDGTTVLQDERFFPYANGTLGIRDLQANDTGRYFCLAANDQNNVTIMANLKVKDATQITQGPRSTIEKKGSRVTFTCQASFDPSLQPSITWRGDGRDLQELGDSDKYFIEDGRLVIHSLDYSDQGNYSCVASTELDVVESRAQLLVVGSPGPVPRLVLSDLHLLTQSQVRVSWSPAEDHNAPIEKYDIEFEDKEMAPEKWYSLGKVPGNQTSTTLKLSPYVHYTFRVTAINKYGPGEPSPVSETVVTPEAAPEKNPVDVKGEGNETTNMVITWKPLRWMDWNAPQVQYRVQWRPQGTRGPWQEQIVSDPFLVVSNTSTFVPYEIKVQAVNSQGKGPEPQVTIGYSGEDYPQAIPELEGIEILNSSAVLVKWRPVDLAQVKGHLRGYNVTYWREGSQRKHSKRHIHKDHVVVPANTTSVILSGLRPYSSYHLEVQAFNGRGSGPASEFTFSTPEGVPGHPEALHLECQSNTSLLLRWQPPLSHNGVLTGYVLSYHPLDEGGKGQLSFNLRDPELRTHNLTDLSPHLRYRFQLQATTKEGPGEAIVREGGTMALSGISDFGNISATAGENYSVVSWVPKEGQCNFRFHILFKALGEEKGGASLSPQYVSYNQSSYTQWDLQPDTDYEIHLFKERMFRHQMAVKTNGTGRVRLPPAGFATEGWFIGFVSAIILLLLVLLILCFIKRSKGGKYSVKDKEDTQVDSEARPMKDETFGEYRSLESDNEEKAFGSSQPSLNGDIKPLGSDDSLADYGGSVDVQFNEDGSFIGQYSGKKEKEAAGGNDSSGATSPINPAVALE
Procedure: COS cells were transfected with various expression vectors coding for full-length HA-tagged NP-1, myc-tagged cyt-deleted NP-1, wild-type L1, and L1 mutant constructs (G121S, A426D, L120V) using a lipofection transfection method (lipofectamine). After 2 DIV, cells were lysed with immunoprecipitation buffer (IP buffer: Hepes 25 mM, EDTA 5 mM, MgCl2 1 mM, PMSF 2 mM, glycerol 10% and triton X100 1%, pH 7). The lysate was incubated at 4° C. for 30 min, centrifuged for 5 min and pre-cleared with protein A-Sepharose for 2 hrs at 4° C. Samples were immunoprecipitated with mouse anti-HA (3μl, clone 12CA5, Roche), rabbit anti-L1 antibodies (3 μl), mouse anti-myc antibodies (3 μl, 9E 10, Sigma) coupled to rabbit anti-mouse antibodies on protein A preformed complexes for 16 hrs at 4° C. The beads were washed, and the precipitates analyzed by immunoblot using anti-HA (1:1000) and anti-L1 (1:1000) antibodies.
A possible molecular mechanism by which soluble L1 and its mimetic peptide could exert their modulatory effect on Sema3A signaling is that they compete with transmembrane L1 in the L1/NP-1 complex. To address this issue we examined in immunoprecipitation experiments the L1/NP-1 complex in conditions mimicking either a repulsive (Sema3A alone) or an attractive (Sema3A combined to the peptide) environment. […]

[1] = tested on: Sema3A-induced co-internalization of L1 and NP-1; assay: Immunocytochemical detection of cell-surface L1 and NP-1; assay type: cell-based; details: peptide 10^−5M
Procedure: (§1) Neonatal cortical cells or COS7 cells transfected with expression vectors for L1 and NP-1 were incubated for 15 min with Rhodamine-Dextran (2 mg/ml) mixed to a solution of Sema3A-AP supernatant, Sema3A and peptide (10^−5M), peptide alone (10^−5M) or control supernatant. Cells were fixed with PFA 4% and processed for immunocytochemistry as described in the above sections. To detect intracellular proteins, cells were permeabilized with methanol for 2 min.
In parallel, cells submitted to the same treatments were processed for immunocytochemical detection of L1 and NP-1. […] Furthermore, in the Sema3A-treated cultures L1 and NP-1 immunoreactivities were detected after permeabilization, as co-localized cytoplasmic patches (FIGS. 7F-7H).

[2] = tested on: cortical axons repelled by Sema3A secreted from the ventral spinal cord; assay: Co-culture of cortical slices and ventral spinal cord explants (axon guidance response to Sema3A); assay type: cell-based, mice
In short: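 Cortical slices from P0–P2 mice were co-cultured in a 3D plasma clot with ventral cervical spinal cord explants, alone or with L1Fc chimeras (3 μg/ml), ODQ (10^−5 M) or 7NI ([…]). After 1–2 DIV and PFA fixation, guidance was scored from −2 (repulsion) to +2 (attraction). Axon number and the three longest fibre lengths were measured in proximal and distal 600 μm regions.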

[3] = tested on: Sema3A-induced endocytosis in COS7 cells co-expressing L1 and NP-1; assay: Rhodamine-Dextran uptake in COS7 cells co-expressing L1 and NP-1; assay type: cell-based; details: 15 min, peptide 10^−5M
Procedure: as §1
(§2) Therefore it has been tested whether L1 mimetic peptide was able to block endocytosis. To visualize endocytosis we examined the uptake of Rhodamine-Dextran applied on live cortical cultures in various conditions. Cells were treated for 15 min with Rhodamine-Dextran together with Sema3A alone, Sema3A combined with the L1 mimetic peptide, peptide alone or untreated as control conditions. Strikingly, uptake of Rhodamine-Dextran was exclusively observed when cells were treated with Sema3A alone. Under this condition, spots of internalized fluorescence were observed along axon shafts and surrounding the cell bodies. […] To correlate this process with L1/NP-1 cis and trans interactions, the experiments of Rhodamine-Dextran uptake were performed on COS7 cells transfected to co-express L1 and NP-1 (FIG. 6B).

[4] = tested on: Sema3A-induced endocytosis in neonatal cortical cells; assay: Rhodamine-Dextran uptake in neonatal cortical cells; assay type: cell-based; details: 15 min, peptide 10^−5M
Procedure: as §1, §2

[5] = molecular target: T1, full-length wild-type human L1 expressed in COS7 cells (human, UniProt P32004 20-1257); assay: immunofluorescence of L1Fc on COS cells expressing wild-type L1
T1 construct: whole, on cells; also called wild-type L1; transmembrane L1
Procedure: Briefly, COS-7 cells were transiently transfected with 10 μg DNA per 150 mm culture dish, the soluble Fc chimeric protein was allowed to accumulate in the media for 6 days and was recovered and purified by protein A-Sepharose affinity chromatography. In the binding experiments, L1Fcs were cross-linked to anti-human Fc antibodies (50 μg/ml, Jackson Immunoresearch) for 1 hr at 37° C. […] Following incubation, the cells were fixed with 4% PFA, and processed for double-immunofluorescence detection. NP-1 was detected using a mouse anti-c myc antibody (clone 9E10, Sigma) and L1 using a rat monoclonal anti-L1 antibody. […] After secondary antibody incubation, the cells were washed with PBS and mounted in Mowiol (Calbiochem).

[6] = molecular target: the molecule itself; assay: two-color FACS bead aggregation, mutant to mutant (FIG. 2B)
Procedure: Excess unbound protein was removed by washing with PBS/5% FCS. […] Samples were diluted 1:5000 into ice cold PBS and the proportion of 2 colour aggregates was assessed using a fluorescence activated cell sorter (Becton Dickenson FACSort). […] Every mutant protein was assayed at least 3 separate times and standardised to a wild-type control conducted in parallel.

full length human L1 = molecular target: T2, full length human L1 (Homo sapiens, UniProt P32004); assay: Binding of L1Fc chimeras to COS cells expressing wild-type L1 (immunofluorescence)
T2 construct: transiently transfected with expression vectors encoding full length human L1; expressed in transfected cells; host or cells: COS7
T2 sequence (P32004 20-1257): as the sequence (P32004 20-1257 partner) above

Plexin-A1 = Plexin-A1 (Homo sapiens, UniProt Q9UIW2); assay: Binding of L1Fc to Plexin-A1 expressing COS7 cells (immunofluorescence)
Chain of Plexin-A1 (Q9UIW2 27-1896, species assumed): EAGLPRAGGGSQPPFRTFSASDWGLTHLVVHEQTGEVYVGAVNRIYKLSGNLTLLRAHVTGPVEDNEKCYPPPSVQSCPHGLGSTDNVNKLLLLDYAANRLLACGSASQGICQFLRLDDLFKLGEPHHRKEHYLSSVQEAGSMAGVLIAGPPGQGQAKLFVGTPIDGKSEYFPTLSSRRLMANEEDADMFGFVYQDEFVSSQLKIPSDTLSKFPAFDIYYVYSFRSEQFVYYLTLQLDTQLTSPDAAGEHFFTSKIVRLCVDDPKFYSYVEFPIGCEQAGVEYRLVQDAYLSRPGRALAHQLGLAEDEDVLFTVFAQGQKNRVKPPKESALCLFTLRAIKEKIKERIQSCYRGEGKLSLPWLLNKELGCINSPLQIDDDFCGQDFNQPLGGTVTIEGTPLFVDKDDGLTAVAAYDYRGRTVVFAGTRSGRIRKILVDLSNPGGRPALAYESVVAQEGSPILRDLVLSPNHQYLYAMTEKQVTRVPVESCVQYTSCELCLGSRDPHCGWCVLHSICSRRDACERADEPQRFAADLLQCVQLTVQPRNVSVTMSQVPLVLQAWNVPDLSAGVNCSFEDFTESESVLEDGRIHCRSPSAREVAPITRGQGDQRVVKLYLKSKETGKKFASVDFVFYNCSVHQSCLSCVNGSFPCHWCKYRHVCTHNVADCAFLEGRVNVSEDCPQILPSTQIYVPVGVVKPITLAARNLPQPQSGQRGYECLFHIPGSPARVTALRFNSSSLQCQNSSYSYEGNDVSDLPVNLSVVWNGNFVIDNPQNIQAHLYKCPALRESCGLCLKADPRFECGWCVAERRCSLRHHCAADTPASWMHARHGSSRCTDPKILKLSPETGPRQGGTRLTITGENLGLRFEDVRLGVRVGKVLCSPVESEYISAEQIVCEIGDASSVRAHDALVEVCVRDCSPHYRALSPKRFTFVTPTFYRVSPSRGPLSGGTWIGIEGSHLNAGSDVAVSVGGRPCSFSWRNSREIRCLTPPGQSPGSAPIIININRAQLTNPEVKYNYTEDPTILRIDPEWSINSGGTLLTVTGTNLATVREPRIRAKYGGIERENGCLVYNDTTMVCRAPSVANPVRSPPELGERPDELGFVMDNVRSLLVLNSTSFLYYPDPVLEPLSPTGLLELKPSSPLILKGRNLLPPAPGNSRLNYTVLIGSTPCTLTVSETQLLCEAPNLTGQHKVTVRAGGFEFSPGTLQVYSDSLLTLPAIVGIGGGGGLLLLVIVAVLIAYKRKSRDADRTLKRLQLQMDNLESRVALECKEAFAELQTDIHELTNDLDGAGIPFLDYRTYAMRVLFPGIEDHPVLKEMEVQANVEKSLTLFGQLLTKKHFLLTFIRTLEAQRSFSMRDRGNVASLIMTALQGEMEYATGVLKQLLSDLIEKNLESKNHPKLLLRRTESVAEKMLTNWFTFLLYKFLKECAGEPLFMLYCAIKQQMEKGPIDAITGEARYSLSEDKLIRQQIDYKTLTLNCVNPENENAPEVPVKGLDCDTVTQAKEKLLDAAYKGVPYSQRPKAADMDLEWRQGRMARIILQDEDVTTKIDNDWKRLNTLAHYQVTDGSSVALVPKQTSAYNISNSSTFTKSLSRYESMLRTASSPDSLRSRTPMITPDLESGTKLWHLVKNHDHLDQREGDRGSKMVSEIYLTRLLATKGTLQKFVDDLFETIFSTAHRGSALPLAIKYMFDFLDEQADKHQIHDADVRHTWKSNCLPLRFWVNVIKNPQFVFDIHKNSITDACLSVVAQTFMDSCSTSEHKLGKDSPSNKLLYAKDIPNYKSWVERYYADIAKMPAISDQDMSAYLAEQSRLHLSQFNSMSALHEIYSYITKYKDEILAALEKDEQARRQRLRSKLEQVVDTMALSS

[7] = Ctx/vSC co-culture, growth away from spinal cord explant, L1Fc 3 μg/ml, ODQ 10^−5 M
[8] = Ctx/vSC co-culture, growth towards spinal cord explant, L1Fc 3 μg/ml, ODQ 10^−5 M

FASNKL (Description of the Artificial sequence Derived from the human amino-acid sequence of L1 Ig1 domain) [FASNKL120, six amino-acid peptide from L1 Ig1 domain]
cis interaction between L1 and NP-1 in presence of the peptide (L1/NP-1 complex): did not abrogate the cis interaction between L1 and NP-1 | L1 and NP-1 cell surface expression, Sema3A combined with peptide [1]: the two proteins were detected; also recorded: blocked by the peptide; also recorded: detected on the cell membrane | L1 and NP-1 cell surface expression, peptide alone [1]: cell surface expression was observed | L1 and NP-1 cell surface expression, Sema3A combined with peptide ([1]; listed as switching peptide): this process was blocked | L1 and NP-1 cell surface expression, peptide alone ([1]; listed as switching peptide): the two proteins were detected | switching of Sema3A repulsion to attraction by peptide ([2]; peptide at 10^−5 and 10^−6M): switched Sema3A repulsion to attraction | conversion of Sema3A-induced chemorepulsion into attraction by peptide ([2]; peptide at 10^−6M): successfully converted Sema3A-induced chemorepulsion into attraction | Rhodamine-Dextran uptake, Sema3A combined with peptide [3]: This process was blocked | Rhodamine-Dextran uptake, peptide alone [3]: no endocytosis could be detected | Rhodamine-Dextran uptake, Sema3A combined with peptide ([3]; listed as mimetic peptide): but not Sema3A combined with the mimetic peptide induced internalization | Rhodamine-Dextran uptake, peptide alone ([3]; listed as mimetic peptide): No fluorescent labeling was detected | Rhodamine-Dextran uptake, Sema3A combined with peptide ([4]; listed as L1 mimetic peptide): blocks Sema3A-induced endocytosis; also recorded: Internalization was blocked | Rhodamine-Dextran uptake, peptide alone ([4]; listed as L1 mimetic peptide): no uptake of Rhodamine-Dextran could be detected; also recorded: Uptake of Rhodamine-Dextran was not detected | Rhodamine-Dextran uptake, Sema3A combined with peptide ([4]; listed as peptide mimicking soluble L1): blocks Sema3A-induced endocytosis

B1: G121S mutant L1Fc chimera (Fc fusion, UniProt P32004 20-1120, looked up)
chain: IQIPEEYEGHHVMEPPVITEQSPRRLVVFPTDDISLKCEASGKPEVQFRWTRDGVHFKPKEELGVTVYQSPHSGSFTITGNNSNFAQRFQGIYRCFASNKLSTAMSHEIRLMAEGAPKWPKETVKPVEVEEGESVVLPCNPPPSAEPLRIYWMNSKILHIKQDERVTMGQNGNLYFANVLTSDNHSDYICHAHFPGTRTIIQKEPIDLRVKATNSMIDRKPRLLFPTNSSSHLVALQGQPLVLECIAEGFPTPTIKWLRPSGPMPADRVTYQNHNKTLQLLKVGEEDDGEYRCLAENSLGSARHAYYVTVEAAPYWLHKPQSHLYGPGETARLDCQVQGRPQPEVTWRINGIPVEELAKDQKYRIQRGALILSNVQPSDTMVTQCEARNRHGLLLANAYIYVVQLPAKILTADNQTYMAVQGSTAYLLCKAFGAPVPSVQWLDEDGTTVLQDERFFPYANGTLGIRDLQANDTGRYFCLAANDQNNVTIMANLKVKDATQITQGPRSTIEKKGSRVTFTCQASFDPSLQPSITWRGDGRDLQELGDSDKYFIEDGRLVIHSLDYSDQGNYSCVASTELDVVESRAQLLVVGSPGPVPRLVLSDLHLLTQSQVRVSWSPAEDHNAPIEKYDIEFEDKEMAPEKWYSLGKVPGNQTSTTLKLSPYVHYTFRVTAINKYGPGEPSPVSETVVTPEAAPEKNPVDVKGEGNETTNMVITWKPLRWMDWNAPQVQYRVQWRPQGTRGPWQEQIVSDPFLVVSNTSTFVPYEIKVQAVNSQGKGPEPQVTIGYSGEDYPQAIPELEGIEILNSSAVLVKWRPVDLAQVKGHLRGYNVTYWREGSQRKHSKRHIHKDHVVVPANTTSVILSGLRPYSSYHLEVQAFNGRGSGPASEFTFSTPEGVPGHPEALHLECQSNTSLLLRWQPPLSHNGVLTGYVLSYHPLDEGGKGQLSFNLRDPELRTHNLTDLSPHLRYRFQLQATTKEGPGEAIVREGGTMALSGISDFGNISATAGENYSVVSWVPKEGQCNFRFHILFKALGEEKGGASLSPQYVSYNQSSYTQWDLQPDTDYEIHLFKERMFRHQMAVKTNGTGRVRLPPAGFATE
notes: also called G121S-L1Fc; not shown: immunoglobulin Fc, human
binding result [5]: no binding | binding result [6]: binds

B2: L1Fc: soluble wild-type L1Fc chimeric protein (protein)
chain: IQIPEEYEGHHVMEPPVITEQSPRRLVVFPTDDISLKCEASGKPEVQFRWTRDGVHFKPKEELGVTVYQSPHSGSFTITGNNSNFAQRFQGIYRCFASNKLGTAMSHEIRLMAEGAPKWPKETVKPVEVEEGESVVLPCNPPPSAEPLRIYWMNSKILHIKQDERVTMGQNGNLYFANVLTSDNHSDYICHAHFPGTRTIIQKEPIDLRVKATNSMIDRKPRLLFPTNSSSHLVALQGQPLVLECIAEGFPTPTIKWLRPSGPMPADRVTYQNHNKTLQLLKVGEEDDGEYRCLAENSLGSARHAYYVTVEAAPYWLHKPQSHLYGPGETARLDCQVQGRPQPEVTWRINGIPVEELAKDQKYRIQRGALILSNVQPSDTMVTQCEARNRHGLLLANAYIYVVQLPAKILTADNQTYMAVQGSTAYLLCKAFGAPVPSVQWLDEDGTTVLQDERFFPYANGTLGIRDLQANDTGRYFCLAANDQNNVTIMANLKVKDATQITQGPRSTIEKKGSRVTFTCQASFDPSLQPSITWRGDGRDLQELGDSDKYFIEDGRLVIHSLDYSDQGNYSCVASTELDVVESRAQLLVVGSPGPVPRLVLSDLHLLTQSQVRVSWSPAEDHNAPIEKYDIEFEDKEMAPEKWYSLGKVPGNQTSTTLKLSPYVHYTFRVTAINKYGPGEPSPVSETVVTPEAAPEKNPVDVKGEGNETTNMVITWKPLRWMDWNAPQVQYRVQWRPQGTRGPWQEQIVSDPFLVVSNTSTFVPYEIKVQAVNSQGKGPEPQVTIGYSGEDYPQAIPELEGIEILNSSAVLVKWRPVDLAQVKGHLRGYNVTYWREGSQRKHSKRHIHKDHVVVPANTTSVILSGLRPYSSYHLEVQAFNGRGSGPASEFTFSTPEGVPGHPEALHLECQSNTSLLLRWQPPLSHNGVLTGYVLSYHPLDEGGKGQLSFNLRDPELRTHNLTDLSPHLRYRFQLQATTKEGPGEAIVREGGTMALSGISDFGNISATAGENYSVVSWVPKEGQCNFRFHILFKALGEEKGGASLSPQYVSYNQSSYTQWDLQPDTDYEIHLFKERMFRHQMAVKTNGTGRVRLPPAGFATE
modifications: left off: a dimerising Fc or GST
notes: soluble wild-type L1Fc chimeric protein
Axonal length, Away [2, 7]: 198.6 +/− 4 | Number of axons, Away [2, 7]: 5.8 +/− 0.7 | Axonal length, Towards [2, 8]: 346.8 +/− 5, * | Number of axons, Towards [2, 8]: 22.6 +/− 1.6, * | switching of Sema3A repulsion to attraction by L1Fc chimera ([2]; chimera 3 μg/ml in culture medium): switched repulsion to attraction | guidance index ([2]; qualitative index from −2 (repulsion) to +2 (attraction), L1Fc chimeras 3 μg/ml, ODQ 10^−5M): +1.5 | binding to wild-type L1 expressed in COS cells (full length human L1): clear binding | binding to wild-type L1 expressed in COS cells (full length human L1; listed as Wild-type L1 Fc): bound to L1 | binding to Plexin-A1 expressing cells (Plexin-A1): no binding to Plexin-A1 expressing cells | binding to Plexin-A1 expressing cells (Plexin-A1; listed as Wild-type L1 Fc): not Plexin-A 1-expressing cells
